# Measurements from PubChem BioAssay (NCI).
#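 1) Cells in 96-well plates. 2) Compound, 48 h, 5 concentrations. 3) Linear interpolation between surrounding doses. 4) Unreached endpoint = highest concentration. TGI denotes the concentration required for complete inhibition of growth.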
# Experiments:
# Experiment in all cases: NCI tumour cell line growth inhibition, 48 h
# UO-31 renal = test system: UO-31 renal
# SK-MEL-5 melanoma = test system: SK-MEL-5 melanoma
# HOP-92 NSCLC = test system: HOP-92 NSCLC
# EKVX NSCLC = test system: EKVX NSCLC
# MOLT-4 leukemia = test system: MOLT-4 leukemia
# HCC-2998 colon = test system: HCC-2998 colon
# K-562 leukemia = test system: K-562 leukemia
# SNB-19 CNS = test system: SNB-19 CNS
# HCT-116 colon = test system: HCT-116 colon
# SF-539 CNS = test system: SF-539 CNS
SMILES,TGI (UO-31 renal) [µM],TGI (SK-MEL-5 melanoma) [µM],TGI (HOP-92 NSCLC) [µM],TGI (EKVX NSCLC) [µM],TGI (MOLT-4 leukemia) [µM],TGI (HCC-2998 colon) [µM],TGI (K-562 leukemia) [µM],TGI (SNB-19 CNS) [µM],TGI (HCT-116 colon) [µM],TGI (SF-539 CNS) [µM]
CCCCCCCC/C=C\CCCCCCCCCCCC(=O)O,> 125,57.5,101,92.8,95.2,> 85.8,47.4,> 64.5,60.9,40.4
CCOP(=O)(OCC)C(F)(F)c1ccc(CC(NC(=O)OC(C)(C)C)C(=O)O)cc1 (stereo not given),> 10,> 10,> 10,> 10,> 10,> 10,> 10,> 10,> 10,> 10
Cc1cc(C)nc(NS(=O)(=O)c2ccc(NC(=O)c3ccc4nc5ccccc5c(Nc5ccc(S(N)(=O)=O)cc5)c4c3)cc2)n1,> 100,> 100,> 100,> 100,> 100,> 100,> 100,> 100,> 100,> 100
